Measured values published in US9980943B2, “Methods of treating muscular dystrophy” (BOARD OF REGENTS OF THE NEVADA SYSTEM OF HIGHER EDUCATION, …, priority 2013, dated 2018).

Key:
Assay type in all cases: cell-based, mouse
[1] = system: α7 integrin (LacZ reporter in α7βgal+/− myoblasts); assay: Myoblast α7+/LacZ integrin FDG assay (Burkin assay in myoblasts, 96-well); conditions: α7+/LacZ myoblasts, 96-well
[2] = system: α7 integrin (LacZ reporter in α7+/LacZ myotubes); assay: Myotube α7 integrin FDG assay (Burkin assay in myotubes, 96-well); conditions: myotubes
[3] = system: β-galactosidase in CMV-LacZ C2C12 myoblasts; assay: CMV-LacZ secondary screen in C2C12 myoblasts (β-Gal stabilizing assay); conditions: CMV-LacZ C2C12 myoblasts
Outline: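 First, C2C12 myoblasts were transfected with a linearized CMV-LACZ vector and clonal lines selected by FDG β-gal assay. Then cells were exposed to compounds at 0.5, 1, 5, 10, 20 and 40 μM in 96-well format, two replicates each, and β-gal measured.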

[4] = system: β-galactosidase in CMV-LacZ C2C12 myotubes; assay: CMV-LacZ secondary screen in C2C12 myotubes (β-Gal stabilizing assay); conditions: C2C12 CMV-LacZ myotubes, fold relative to DMSO
Outline: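 CMV-LacZ C2C12 line (clonal, FDG-screened); myoblasts/myotubes dosed 0.5–40 μM (0.5, 1, 5, 10, 20, 40 μM); n=2 per point; β-gal stabilization read-out.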

SMILES	Burkin Assay in Myoblasts, signal relative to DMSO ([1]; 0.5 uM)	Burkin Assay in Myoblasts, signal relative to DMSO ([1]; 1 uM)	Burkin Assay in Myoblasts, signal relative to DMSO ([1]; 5 uM)	Burkin Assay in Myoblasts, signal relative to DMSO ([1]; 10 uM)	Burkin Assay in Myoblasts, signal relative to DMSO ([1]; 20 uM)	Burkin Assay in Myoblasts, signal relative to DMSO ([1]; 40 uM)	Burkin Assay in Myotubes, α7 integrin LacZ reporter signal relative to DMSO ([2]; 0.5 uM)	Burkin Assay in Myotubes, α7 integrin LacZ reporter signal relative to DMSO ([2]; 1 uM)	Burkin Assay in Myotubes, α7 integrin LacZ reporter signal relative to DMSO ([2]; 5 uM)	Burkin Assay in Myotubes, α7 integrin LacZ reporter signal relative to DMSO ([2]; 10 uM)	Burkin Assay in Myotubes, α7 integrin LacZ reporter signal relative to DMSO ([2]; 20 uM)	Burkin Assay in Myotubes, α7 integrin LacZ reporter signal relative to DMSO ([2]; 40 uM)	CMV-LACZ in Myoblasts (β-galactosidase activity relative to DMSO) ([3]; 0.5 uM)	CMV-LACZ in Myoblasts (β-galactosidase activity relative to DMSO) ([3]; 1 uM)	CMV-LACZ in Myoblasts (β-galactosidase activity relative to DMSO) ([3]; 5 uM)	CMV-LACZ in Myoblasts (β-galactosidase activity relative to DMSO) ([3]; 10 uM)	CMV-LACZ in Myoblasts (β-galactosidase activity relative to DMSO) ([3]; 20 uM)	CMV-LACZ in Myoblasts (β-galactosidase activity relative to DMSO) ([3]; 40 uM)	CMV-LACZ in Myotubes, signal relative to DMSO ([4]; 0.5 uM)	CMV-LACZ in Myotubes, signal relative to DMSO ([4]; 1 uM)	further results
CC(C)(C)c1csc(NC(=O)c2cccnc2)n1 [MLS001164432-01]	1.248	1.1813	1.091	1.067	0.7137	0.6622	0.8982	0.9509	0.9878	0.9985	0.7121	0.8464	0.9600	0.7842	1.1387	1.3183	1.1059	1.1289	0.9248	1.3543	CMV-LACZ in Myotubes, signal relative to DMSO ([4]; 5 uM): 0.9500; CMV-LACZ in Myotubes, signal relative to DMSO ([4]; 10 uM): 1.2418; CMV-LACZ in Myotubes, signal relative to DMSO ([4]; 20 uM): 1.1358; CMV-LACZ in Myotubes, signal relative to DMSO ([4]; 40 uM): 1.1179
O=C(O)C(Cc1ccc(O)cc1)N1C(=O)c2ccccc2C1=O (stereo not drawn) [MLS001165394-01]	1.149	1.201	1.159	0.951	1.035	1.007	1.068	1.135	1.239	0.9854	1.188	1.034	1.0655	1.0015	1.0941	0.9792	0.8663	0.9570	0.9232	1.1558	CMV-LACZ in Myotubes, signal relative to DMSO ([4]; 5 uM): 0.9589; CMV-LACZ in Myotubes, signal relative to DMSO ([4]; 10 uM): 0.9045; CMV-LACZ in Myotubes, signal relative to DMSO ([4]; 20 uM): 1.0344; CMV-LACZ in Myotubes, signal relative to DMSO ([4]; 40 uM): 0.9544
CCCCN1CC(=O)N2Cc3[nH]c4ccccc4c3C[C@H]2C1=O [MLS001165424-01]	1.152	1.2222	0.9966	0.9548	1.176	1.23	0.8771	0.8568	0.8938	0.8315	0.7791	0.7641	1.1754	0.9796	1.0607	1.0078	1.2730	1.2074	0.9152	1.1248	CMV-LACZ in Myotubes, signal relative to DMSO ([4]; 5 uM): 1.0571; CMV-LACZ in Myotubes, signal relative to DMSO ([4]; 10 uM): 1.1758; CMV-LACZ in Myotubes, signal relative to DMSO ([4]; 20 uM): 1.0316; CMV-LACZ in Myotubes, signal relative to DMSO ([4]; 40 uM): 0.8558
